Target: T1, JAK1-JH2 protein (aa 561-860, in-house) (Homo sapiens, UniProt P23458)
T1 construct: JAK1-JH2 protein (aa 561-860, in-house); made in house
Assay: JAK1-JH2 biochemical assay (HTRF probe displacement)
Type: binding
Conditions: in-house probe of the JAK1-JH2 assay

T1 sequence (P23458 561-860): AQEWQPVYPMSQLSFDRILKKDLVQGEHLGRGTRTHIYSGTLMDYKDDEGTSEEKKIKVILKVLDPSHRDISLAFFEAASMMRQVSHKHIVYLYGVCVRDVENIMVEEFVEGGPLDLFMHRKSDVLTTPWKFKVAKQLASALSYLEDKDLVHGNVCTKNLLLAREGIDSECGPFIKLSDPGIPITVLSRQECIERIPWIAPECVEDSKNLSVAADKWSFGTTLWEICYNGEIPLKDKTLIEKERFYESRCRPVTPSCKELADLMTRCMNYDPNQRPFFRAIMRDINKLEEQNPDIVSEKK

Kd: 2.9 nM
SMILES: CN(C(=O)CN1CCN(CCNC(=O)CCOCCOCCOCCOCCOCCOCCNC(=O)CCCC[C@@H]2SC[C@@H]3NC(=O)N[C@@H]32)CC1)c1ccc(N/C(=C2\C(=O)Nc3ccccc32)c2ccccc2)cc1 [Probe 2, N-(2-(4-(2-(methyl(4-((((Z)-2-oxoindolin-3-ylidene)(phenyl)methyl)amino)phenyl)amino)-2-oxoethyl)piperazin-1-yl)ethyl)-1-(5-((3aS,4S,6aR)-2-oxohexahydro-1H-thieno[3,4-d]imidazol-4-yl)pentanamido)-3,6,9,12,15,18-hexaoxahenicosan-21-amide]
